Earlier results in US20230002631A1, “WATER-WASHABLE COMPOSITIONS FOR USE IN 3D PRINTING” (BASF SE, priority 2019, published 2023).
Read-outs that look alike come from different tables or passages of the source. Each block holds one compound with its values, some of them ahead of it.

Conditions: for Amount that dissolves in water: room temperature; for Water solubility (g/L at 20° C.): slightly water-soluble reactive diluents (B1b)

Compound: C=CC(=O)OCCOCCOCC [2-(2-ethoxyethoxy)ethyl acrylate(EOEOA), 2-(2-ethoxyethoxy)ethyl acrylate]
- Amount that dissolves in water: 13.4 g/L

Compound: C=CC(=O)OCCOC(=O)NCCCC [2-[[(butylamino)carbonyl]oxy]ethyl acrylate]
- Water solubility (g/L at 20° C.) (20° C.): 5.0 g/L

Compound: C=CN1CCCCCC1=O [N-Vinyl-caprolactam (NVC), N-Vinyl-caprolactam]
- Water solubility (temperature not given): 40 g/L

Compound: C=Cn1ccnc1 [N-Vinyl-imidazole (VIM), N-Vinyl-imidazole]
- Water solubility (stated in words): Fully miscible

Compound: C=CN1CCCC1=O [N-Vinyl-pyrrolidone (NVP), N-Vinyl-pyrrolidone]
- Water solubility (20° C.): 100 g/L at 68° F. (20° C.)

Compound: C=CC(=O)OCCO [hydroxyethyl acrylate]
- Water solubility (25° C.): 100 g/L

Compound: C=C(C)C(=O)OCCO [hydroxyethyl methacrylate]
- Amount that dissolves in water: 11.8 g/L

Compound: C=CC(=O)OCC(C)OCC(C)OCC(C)OC(=O)C=C (centres unmarked) [tripropylene glycol diacrylate]
- Water solubility (g/L at 20° C.) (20° C.): 4.0 g/L

Compound: Poly(ethylene glycol) diacrylate
- Water solubility (temperature not given): 21 g/L

Compound: Polyethylene glycol (200) diacrylate
- Water solubility (stated in words): Water soluble

Compound: Polyethylene glycol (400) diacrylate
- Water solubility (stated in words): Water soluble

Second part, the compound after the results:

- Water solubility (temperature not given): 12.6 g/L
Compound: C=C(C)C(=O)OCCOCCOCCOCCOC(=O)C(=C)C [Tetraethylene glycol dimethacrylate]

- Water solubility (temperature not given): 18 g/L
Compound: C=CC(=O)OCCOCCOCCOC(=O)C=C [Triethylene glycol diacrylate (TEGDA), Triethylene glycol diacrylate]

- Water solubility (g/L at 20° C.) (20° C.): 9.3 g/L
Compound: C=CC(=O)OCC1(CC)COCOC1 [cyclic trimethylolpropane formal acrylate]

- Water solubility (25° C.): 100 g/L
Compound: C=CC(=O)OCCCO [hydroxypropyl acrylate]

- Water solubility (g/L at 20° C.) (20° C.): <10 g/L
Compound: C=C(C)C(=O)OCCCO [hydroxypropyl methacrylate]

- Water solubility (g/L at 20° C.) (20° C.): 3.6 g/L
Compound: C=C(C)C(=O)OCCOCCOCCOC(=O)C(=C)C [triethylene glycol dimethacrylate]
